Laboratory results taken from the NIST ThermoML archive (doi:10.1016/j.jct.2016.06.034).

Assay: osmotic coefficient (dimensionless); mn = molality of the nth substance listed, in mol/kg
Conditions: 308.15 K, 84.5 kPa, Liquid, Knauer Osmomat K-7000

CCCCCCCCCCn1cc[n+](C)c1.[Br-] [1-decyl-3-methylimidazolium bromide] + O
Conditions | osmotic coefficient
m1 = 0.01036 | 1.233
m1 = 0.01532 | 1.16
m1 = 0.01539 | 1.154
m1 = 0.02001 | 1.11
m1 = 0.02014 | 1.106
m1 = 0.02471 | 1.081
m1 = 0.02479 | 1.075
m1 = 0.03022 | 1.06
m1 = 0.03026 | 1.055
m1 = 0.03486 | 1.021
m1 = 0.0384 | 0.9873
m1 = 0.03983 | 0.9742
m1 = 0.04483 | 0.8983
m1 = 0.04981 | 0.8319
m1 = 0.05918 | 0.735
m1 = 0.06429 | 0.687
m1 = 0.06983 | 0.644
m1 = 0.07967 | 0.579
m1 = 0.08811 | 0.53
m1 = 0.09976 | 0.48
m1 = 0.1175 | 0.417
